Source: patent US20260274833A1 (NiKang Therapeutics, Inc., priority 2022, published 2026)

Target: T1, CDK2 (Homo sapiens, UniProt P24941)
T1 construct: endogenous in cells; host or cells: OVCAR3 cells
Test: Phospho-RB measurement in OVCAR3 cells (HTRF phospho-RB cellular kit)
Type: cell-based
Details: inhibition of RB phosphorylation at S807/811 (HTRF, TR-FRET ratio 665/620), 24 h compound treatment, 0.3 to 10,000 nM
How it was run: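 IC50 came from a four-parameter logistic fit of the DMSO-normalized TR-FRET ratio (665/620 nm). That ratio reflects RB phosphorylation at S807/811, read with an HTRF antibody pair 4 h after adding lysate at room temperature.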

Row | IC50 | SMILES
1 | 40.4 nM | CC(C)(C)c1nc(-c2cccc(NS(=O)(=O)N3Cc4cccc(OC(F)F)c4C3)c2F)c(-c2ccnc(NC3CC4(C3)CS(=O)(=O)C4)n2)s1 [Example 205, N-(3-(2-(tert-butyl)-5-(2-((2,2-dioxido-2-thiaspiro[3.3]heptan-6-yl)amino)-pyrimidin-4-yl)thiazol-4-yl)-2-fluorophenyl)-4-(difluoromethoxy)-isoindoline-2-sulfonamide]
2 | 619 nM | CN(C)c1cccc2c1CN(S(=O)(=O)Nc1cccc(-c3nc(C(C)(C)C)sc3-c3ccnc(NC4CC5(C4)CS(=O)(=O)C5)n3)c1F)C2 [Example 206, N-(3-(2-(tert-butyl)-S-(2-((2,2-dioxido-2-thiaspiro[3.3]heptan-6-yl)amino)-pyrimidin-4-yl)thiazol-4-yl)-2-fluoro-phenyl)-4-(dimethylamino) isoindoline-2-sulfonamide]
3 | 199 nM | CNc1cccc2c1CN(S(=O)(=O)Nc1cccc(-c3nc(C(C)(C)C)sc3-c3ccnc(NC4CC5(C4)CS(=O)(=O)C5)n3)c1F)C2 [Example 207, N-(3-(2-(tert-butyl)-5-(2-((2,2-dioxido-2-thiaspiro[3.3]heptan-6-yl)amino)-pyrimidin-4-yl)thiazol-4-yl)-2-fluorophenyl)-4-(methylamino)-isoindoline-2-sulfonamide]
4 | 3690 nM | CC(C)(C)c1nc(-c2cccc(NS(=O)(=O)N3Cc4ccccc4C3c3ccccc3)c2F)c(-c2ccnc(NC3CC4(C3)CS(=O)(=O)C4)n2)s1 (stereo not shown) [Example 208, N-(3-(2-(tert-butyl)-5-(2-((2,2-dioxido-2-thiaspiro[3.3]heptan-6-yl)amino)-pyrimidin-4-yl)thiazol-4-yl)-2-fluoro-phenyl)-1-phenylisoindoline-2-sulfonamide]
5 | 350 nM | CC1(c2nc(-c3cccc(NS(=O)(=O)N4Cc5ccncc5C4)c3F)c(-c3ccnc(NC4CC5(C4)CS(=O)(=O)C5)n3)s2)CCOCC1 [Example 209, N-(3-(5-(2-((2,2-dioxido-2-thiaspiro-[3.3]-heptan-6-yl)amino)pyrimidin-4-yl)-2-(4-methyltetrahydro-2H-pyran-4-yl)thiazol-4-yl)-2-fluorophenyl)-1,3-dihydro-2H-pyrrolo [3,4-c]-pyridine-2-sulfonamide]
6 | 505 nM | CC(C)(C)c1nc(-c2cccc(NS(=O)(=O)N3Cc4cccc(Oc5ccccc5)c4C3)c2F)c(-c2ccnc(NC3CC4(C3)CS(=O)(=O)C4)n2)s1 [Example 210, N-(3-(2-(tert-butyl)-5-(2-((2,2-dioxido-2-thiaspiro[3.3]heptan-6-yl)amino)-pyrimidin-4-yl)thiazol-4-yl)-2-fluoro-phenyl)-4-phenoxy-isoindoline-2-sulfonamide]
7 | 613 nM | CC(C)(C)c1nc(-c2cccc(NS(=O)(=O)N3Cc4cccc(Oc5ccccc5)c4C3)c2F)c(-c2ccnc(NC3CCN(S(C)(=O)=O)CC3)n2)s1 [Example 211, N-(3-(2-(tert-butyl)-5-(2-((1-(methylsulfonyl)-piperidin-4-yl)amino)-pyrimidin-4-yl)thiazol-4-yl)-2-fluoro-phenyl)-4-phenoxyisoindoline-2-sulfonamide]
8 | 662 nM | O=S1(=O)CC2(CC(Nc3nccc(-c4sc(N5C6CCC5COC6)nc4-c4cccc(NS(=O)(=O)N5Cc6ccncc6C5)c4F)n3)C2)C1 [Example 212, N-(3-(2-(3-oxa-8-azabicyclo [3.2.1]octan-8-yl)-5-(2-((2,2-dioxido-2-thiaspiro-[3.3]heptan-6-yl)amino)pyrimidin-4-yl)thiazol-4-yl)-2-fluorophenyl)-1,3-dihydro-2H-pyrrolo [3,4-c]-pyridine-2-sulfonamide]
9 | 3300 nM | CC(C)(C)c1nc(-c2cccc(NS(=O)(=O)N3Cc4ccccc4C3Cc3ccccc3)c2F)c(-c2ccnc(NC3CCN(S(C)(=O)=O)CC3)n2)s1 (stereo not shown) [Example 213, 1-benzyl-N-(3-(2-(tert-butyl)-5-(2-((1-(methylsulfonyl)piperidin-4-yl)amino)-pyrimidin-4-yl)thiazol-4-yl)-2-fluoro-phenyl)-isoindoline-2-sulfonamide]
10 | 535 nM | CC(C)(C)c1nc(-c2cccc(NS(=O)(=O)N3Cc4cccc(Oc5cccc(F)c5)c4C3)c2F)c(-c2ccnc(NC3CC4(C3)CS(=O)(=O)C4)n2)s1 [Example 214, N-(3-(2-(tert-butyl)-5-(2-((2,2-dioxido-2-thiaspiro[3.3]heptan-6-yl)amino)-pyrimidin-4-yl)thiazol-4-yl)-2-fluorophenyl)-4-(3-fluorophenoxy)-isoindoline-2-sulfonamide]
11 | 601 nM | CC(C)(C)c1nc(-c2cccc(NS(=O)(=O)N3Cc4cccc(Oc5ccc(F)cc5)c4C3)c2F)c(-c2ccnc(NC3CC4(C3)CS(=O)(=O)C4)n2)s1 [Example 215, N-(3-(2-(tert-butyl)-5-(2-((2,2-dioxido-2-thiaspiro[3.3]heptan-6-yl)amino)-pyrimidin-4-yl)thiazol-4-yl)-2-fluoro-phenyl)-4-(4-fluoro-phenoxy)-isoindoline-2-sulfonamide]
12 | 65.4 nM | CC(C)(C)c1nc(-c2cccc(NS(=O)(=O)N3CCc4c(CO)cccc43)c2F)c(-c2ccnc(NC3CC4(C3)CS(=O)(=O)C4)n2)s1 [Example 216, N-(3-(2-(tert-butyl)-5-(2-((2,2-dioxido-2-thiaspiro[3.3]heptan-6-yl)amino)-pyrimidin-4-yl)thiazol-4-yl)-2-fluoro-phenyl)-4-(hydroxymethyl) indoline-1-sulfonamide]
13 | 934 nM | CC(C)(C)c1nc(-c2cccc(NS(=O)(=O)N3CCc4ccc(-c5ccccc5)cc43)c2F)c(-c2ccnc(NC3CC4(C3)CS(=O)(=O)C4)n2)s1 [Example 217, N-(3-(2-(tert-butyl)-5-(2-((2,2-dioxido-2-thiaspiro[3.3]heptan-6-yl)amino)-pyrimidin-4-yl)thiazol-4-yl)-2-fluoro-phenyl)-6-phenyl-indoline-1-sulfonamide]
14 | 1300 nM | CC(C)(C)c1nc(-c2cccc(NS(=O)(=O)N3CCc4ccc(-c5ccccc5)cc43)c2F)c(-c2ccnc(NC3CCN(S(C)(=O)=O)CC3)n2)s1 [Example 218, N-(3-(2-(tert-butyl)-5-(2-((1-(methylsulfonyl)-piperidin-4-yl)amino)-pyrimidin-4-yl)thiazol-4-yl)-2-fluoro-phenyl)-6-phenylindoline-1-sulfonamide]
15 | 583 nM | CC(C)(C)c1nc(-c2cccc(NS(=O)(=O)N3Cc4cccc(Oc5ccccc5C#N)c4C3)c2F)c(-c2ccnc(NC3CC4(C3)CS(=O)(=O)C4)n2)s1 [Example 219, N-(3-(2-(tert-butyl)-5-(2-((2,2-dioxido-2-thiaspiro[3.3]heptan-6-yl)amino)-pyrimidin-4-yl)thiazol-4-yl)-2-fluorophenyl)-4-(2-cyanophenoxy)-isoindoline-2-sulfonamide]
16 | 802 nM | Cn1c(-c2ccc3c(c2)N(S(=O)(=O)Nc2cccc(-c4nc(C(C)(C)C)sc4-c4ccnc(NC5CC6(C5)CS(=O)(=O)C6)n4)c2F)CC3)cccc1=O [Example 220, N-(3-(2-(tert-butyl)-5-(2-((2,2-dioxido-2-thiaspiro[3.3]heptan-6-yl)amino)-pyrimidin-4-yl)thiazol-4-yl)-2-fluoro-phenyl)-6-(1-methyl-6-oxo-1,6-dihydropyridin-2-yl)indoline-1-sulfonamide]
